Test results taken from patent US7553860B2, “Substituted gamma lactams as therapeutic agents” (Allergan, Inc., priority 2006, dated 2009).

What was measured:
EP2 [1] = molecular target: T1, EP2 (Homo sapiens, UniProt P43116); experiment: EP2 cAMP; type: cell-based
EP2 [2] = molecular target: T1, EP2; experiment: EP2 competition binding ([3H]PGE2), Ki; set-up: expressed in transfected cells; host or cells: HEK 293; settings: HEK 293 cells stably expressing human EP2, [3H]PGE2
Method: Competition binding experiments are performed in a medium containing Hank's balanced salt solution, Hepes 20 mM, pH 7.3, membranes (˜60 μg protein) or 2×10^5 cells from HEK 293 cells stably expressing human EP2 receptors, [^3H]PGE2 (10 nM) and various concentrations of test compounds in a total volume of 300 μl. Reaction mixtures are incubated at 23° C. for 60 min, and are filtered over Whatman GF/B filters under vacuum. Filters are washed three times with 5 ml ice-cold buffer containing 50 mM Tris/HCl (pH 7.3). Non-specific binding is estimated in the presence of excess unlabeled PGE2 (10 μM). Binding data fitted to the binding model for a single class of binding sites, using nonlinear regression analysis. IC50 values thus obtained are converted to Ki using the equation of Ki=(IC50/(1+[L]/KD) where [L] represents PGE2 concentration (10 nM) and KD the dissociation constant for [^3H]PGE2 at human EP2 receptors (40 nM). […]
The cell homogenate is centrifuged at 19000 r.p.m. for 20 min at 4° C. using a Beckman Ti-60 rotor. The resultant pellet is resuspended in TME buffer to give a final 1 mg/ml protein concentration, as determined by Biorad assay. […]
[^3H-] […] 17-phenyl PGF2[…] and non-specific binding determined with 10^−5M of unlabeled PGE2, or 17-phenyl PGF2α, according to receptor subtype studied.

hEP2/Gqs5 = molecular target: T2, hEP2/Gqs5 (Homo sapiens, UniProt P43116); experiment: EP2 FLIPR calcium signal; type: cell-based; settings: HEK-293(EBNA) cells
T2 construct: expressed in transfected cells; host or cells: HEK-293(EBNA)
T2 sequence (P43116 whole entry): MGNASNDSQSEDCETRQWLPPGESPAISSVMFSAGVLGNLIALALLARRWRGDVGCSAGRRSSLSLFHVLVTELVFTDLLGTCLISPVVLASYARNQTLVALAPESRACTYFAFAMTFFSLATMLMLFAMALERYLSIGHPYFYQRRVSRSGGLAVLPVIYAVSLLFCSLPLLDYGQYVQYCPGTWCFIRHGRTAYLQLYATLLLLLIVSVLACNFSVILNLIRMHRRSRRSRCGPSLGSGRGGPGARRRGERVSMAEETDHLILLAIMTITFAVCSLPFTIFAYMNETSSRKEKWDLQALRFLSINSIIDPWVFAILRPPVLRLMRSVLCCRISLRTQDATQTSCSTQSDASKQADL
Method: (§1) HEK-293(EBNA) cells, stably expressing one type or subtype of recombinant human prostaglandin receptors (prostaglandin receptors expressed: hDP/Gqs5; hEP1; hEP2/Gqs5; hEP3A/Gqi5; hEP4/Gqs5; hFP; hIP; hTP), are cultured in 100 mm culture dishes in high-glucose DMEM medium containing 10% fetal bovine serum, 2 mM I-glutamine, 250 μg/ml geneticin (G418) and 200 μg/ml hygromycin B as selection markers, and 100 units/ml penicillin G, 100 μg/ml streptomycin and 0.25 μg/ml amphotericin B.
(§2) Cells are seeded at a density of 5×10^4 cells per well in Biocoat® Poly-D-lysine-coated black-wall, clear-bottom 96-well plates (Becton-Dickinson) and allowed to attach overnight in an incubator at 37° C. Cells are then washed two times with HBSS-HEPES buffer (Hanks Balanced Salt Solution without bicarbonate and phenol red, 20 mM HEPES, pH 7.4) using a Denley Cellwash plate washer (Labsystems). […]
(§3) Cells are excited with an Argon laser at 488 nm, and emission is measured through a 510-570 nm bandwidth emission filter (FLIPR™, Molecular Devices, Sunnyvale, Calif.). […] The peak increase in fluorescence intensity is recorded for each well. […] The peak fluorescence change in each drug-containing well is then expressed relative to the controls. […]

hEP3A/Gqi5 = molecular target: T3, hEP3A/Gqi5 (Homo sapiens, UniProt P43115); experiment: FLIPR calcium signal, hEP3A; type: cell-based; settings: HEK-293(EBNA) cells; read-out: Other Receptors (EC50 in nM) hEP3A
T3 construct: expressed in transfected cells; host or cells: HEK-293(EBNA)
T3 sequence (P43115 1-390): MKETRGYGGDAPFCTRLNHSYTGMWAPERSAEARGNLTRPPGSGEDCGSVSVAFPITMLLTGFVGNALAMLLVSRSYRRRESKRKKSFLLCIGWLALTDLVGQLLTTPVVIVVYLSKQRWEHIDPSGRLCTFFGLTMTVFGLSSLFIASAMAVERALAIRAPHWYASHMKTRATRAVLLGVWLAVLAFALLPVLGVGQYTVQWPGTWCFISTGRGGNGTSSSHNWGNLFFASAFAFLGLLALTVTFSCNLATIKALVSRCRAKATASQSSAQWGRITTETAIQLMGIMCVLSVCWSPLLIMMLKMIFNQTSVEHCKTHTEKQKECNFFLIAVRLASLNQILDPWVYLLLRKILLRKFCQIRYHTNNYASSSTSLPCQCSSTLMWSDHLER
Method: as §1, §2, §3

hDP/Gqs5 = molecular target: T4, hDP/Gqs5 (Homo sapiens, UniProt Q13258); experiment: FLIPR calcium signal, hDP; type: cell-based; settings: HEK-293(EBNA) cells; read-out: Other Receptors (EC50 in nM) hDP
T4 construct: expressed in transfected cells; host or cells: HEK-293(EBNA)
T4 sequence (Q13258 1-359): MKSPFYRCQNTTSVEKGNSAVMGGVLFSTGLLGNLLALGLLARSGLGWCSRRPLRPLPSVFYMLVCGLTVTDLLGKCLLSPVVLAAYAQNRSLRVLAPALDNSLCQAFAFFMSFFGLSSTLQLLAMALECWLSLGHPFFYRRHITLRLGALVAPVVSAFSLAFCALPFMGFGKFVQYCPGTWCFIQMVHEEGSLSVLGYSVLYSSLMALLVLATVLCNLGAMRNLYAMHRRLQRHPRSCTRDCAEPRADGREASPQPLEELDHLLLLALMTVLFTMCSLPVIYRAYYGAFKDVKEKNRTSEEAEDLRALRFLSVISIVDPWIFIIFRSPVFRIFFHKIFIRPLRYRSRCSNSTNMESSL
Method: as §1, §2, §3

T1 sequence (P43116 whole entry): as the sequence (P43116 whole entry) above

SMILES | EC50 (EP2 [1]) | Ki (EP2 [2]) | EC50 (hEP2/Gqs5) | EC50 (hEP3A/Gqi5) | EC50 (hDP/Gqs5)
CCCCCC(F)c1ccc(N2C(=O)OC[C@@H]2COCc2ccc(C(=O)O)s2)cc1 (stereo partly drawn) [5-{(S)-3-[4-(1-Fluoro-hexyl)-phenyl]-2-oxo-oxazolidin-4-ylmethoxymethyl}-thiophene-2-carboxylic acid] | 13 nM | 1040 nM |  |  | 
CCCCCC(O)c1ccc(N2C(=O)OC[C@@H]2COCc2ccc(C(=O)O)s2)cc1 (stereo partly drawn) [5-{(S)-3-[4-(1-Hydroxy-hexyl)-phenyl]-2-oxo-oxazolidin-4-ylmethoxymethyl}-thiophene-2-carboxylic acid] | 14 nM | 2710 nM | 817 nM | 995 nM | > 10000 nM
